How the values were obtained:
[1] = Total platinum in rat plasma after i.p. injection (pharmacokinetics, atomic absorption); details: female, Wistar, in vivo, ip, 15 mg/kg
Procedure: For pharmacokinetic studies 20 Wistar female rats, 2-3 months of age were used of an average body weight of 150 g. […] Two animals per time point were used. […] Blood was collected in heparinized Eppendorf tubes and was centrifuged. Total platinum levels in plasma was determined using furnace Atomic Absorption (AA700 Perkin Elmer).
At various time points postinjection blood was drawn, plasma was isolated and total platinum levels were measured for pharmacokinetic studies.
This was calculated by linear regression analysis of the logarithmic plasma concentration-time curve by the formula Kel=[Ln(Cp1)−Ln(Cp2)]/(t2−t1) where t1 and t2 are the starting and ending time points of measurements and Cp1 and Cp2 the starting and ending concentrations of total platinum in plasma for t1 and t2, respectively.
This was calculated by the formula: t½=0.693 (1/Kel). 1/Kel is the mean residence time (MRT), the statistical moment analogy to half-life t½ (Gibaldi et al, 1982).

[2] = not given; remark: listed apart in the source
[3] = Toxicity of i.v. doses in mice
[4] = system: human breast cancers in mice; assay: Human breast cancer xenografts in mice, intravenous injections; details: 6 intravenous injections with 4 days intervals; Lipoxal 16 mg/Kg, oxaliplatin at its MTD
[5] = Phase I-II study of Lipoplatin combined with gemcitabine: toxicity, DLT, MTD; type: in vivo, human; details: combined with Lipoplatin 100 mg/m2, every two weeks
Procedure: Patients and Methods: The gemcitabine dose was kept standard at 1000 mg/m2 and the lipoplatin dose was escalated from 25 mg/m2 to 125 mg/m2. The treatment was administered to advanced pretreated pancreatic cancer patients who were refractory to previous chemotherapy which included gemcitabine.
Gemcitabine was given as a 60 min i.v. infusion in 500 ml normal saline on days 1 and 15 at a dose of 1000 mg/m2 and cycles were repeated every 4 weeks (28 days). The infusions on days 1 and 15 were considered to be 1 cycle. […] Prophylactic administration of recombinant human granulocyte colony-stimulating factor (rhG-CSF) was not allowed. In cases of grade 3 neutropenia, these patients would receive subsequent infusions of pegfilgrastim 6 mg, on the 6th or 7th day and treatment would be postponed for one week. Treatment was administered for at least three cycles or until disease progression. The study was a phase I/II cohort, dose escalation trial of Lipoplatin® and gemcitabine. Its aims were to determine the dose limiting toxicity (DLT) of the combination and to define the maximum tolerated dose (MTD) as a recommended dose for phase II and to collect preliminary data on the efficacy of the drug in pretreated patients with pancreatic cancer. […]

[6] = female, Wistar, rat, in vivo, ip, 15 mg/kg
[7] = rats i.p., 15 mg/Kg (estimation) (Lipoplatin 30, cisplatin 5 mg/Kg)
[8] = rats i.p., Lipoplatin 30, cisplatin 5 mg/Kg

O=C1[O][Pt]2([NH]C3CCCCC3[NH2+]2)[O]C1=O [oxaliplatin, cis-[(1R,2 R)-1,2-cyclohexanediamine-N,N][oxalato(2-)-O,O] platinum]
time post-injection at which total platinum in plasma reaches zero [1]: ~100 h | final body weight at 7 days (150 g before study) (15 mg/Kg i.p.): 109 g | weight loss of total body weight during 7 days (15 mg/kg i.p.): over 40 gr | Weight of total animal organ: Heart (15 mg/kg i.p., 7.8 or 7 days): 0.523 g | Weight of total animal organ: Kidney (15 mg/kg i.p., 7.8 or 7 days): 0.475 g | Weight of total animal organ: Lung (15 mg/kg i.p., 7.8 or 7 days): 0.934 g | Weight of total animal organ: Spleen (15 mg/kg i.p., 7.8 or 7 days): 0.188 g | weight loss (30 mg/Kg i.p., 7 days post-treatment): 33% | average weight after 7 days (from 150 g) (30 mg/Kg i.p., day 7): 100 g | hepatic toxicity / nephrotoxicity (rats i.p.): absence of nephrotoxicity | Kel, kidney [2, 6]: 0.002 h⁻¹ | time at which the early spleen maximum is reached [2, 6]: 15 to 20 min | Cl, kidney ([2]; rat, in vivo, ip, 15 mg/kg): 0.01 h⁻¹ | outcome of mice injected with 5 mg/Kg ([3]; 5 mg/Kg): died of toxicity | MTD ([3]; mouse, in vivo): 4 mg/kg | effect on human breast cancers in mice [4]: only cause shrinkage, not disappearance

Nc1ccn([C@@H]2O[C@H](CO)[C@@H](O)C2(F)F)c(=O)n1 [gemcitabine]
MTD of gemcitabine in the combination [5]: 1000 mg/m2

N.N.[Cl][Pt][Cl] [cisplatin, cis-PtCl2(NH3)2]
maximum tolerated dose (rats i.p.): 5 mg/kg | total platinum in liver from 24 to 150 h ([2]; rats i.p. 5 mg/Kg): 1 | time at which the liver level is attained ([2]; rats i.p., 15 mg/Kg (cisplatin 5 mg/Kg)): 20 min | total platinum, Heart, 5 h [2, 7]: 0.2 mg Pt/g tissue | total platinum, Kidney, 5 h [2, 7]: 6.8 mg Pt/g tissue | total platinum, Liver, 5 h [2, 7]: 2.4 mg Pt/g tissue | total platinum, Lung, 5 h [2, 7]: 0.7 mg Pt/g tissue | total platinum, Spleen, 5 h [2, 7]: 1.2 mg Pt/g tissue | total platinum, Brain, 5-7 days [2, 8]: 0 mg Pt/g tissue | total platinum, Brain, 5 h [2, 8]: 0.1 mg Pt/g tissue | total platinum, Brain, maximum (7-20 min) [2, 8]: 0.3 mg Pt/g tissue

Source: US20090053302A1, “CANCER TREATMENTS” (priority 2006, published 2009)
